From patent US7534766B2, “Glucuronide metabolites and epimers thereof of tigecycline” (Wyeth, priority 2004, dated 2009)
“Also recorded” adds a separate entry of the source.

What was measured:
[1] = male, human, in vivo
Description: An open-label, inpatient, multiple-dose tigecycline, single-dose [^14C]tigecycline metabolic disposition and mass balance study was performed in six healthy male volunteers. The clinical protocol called for twelve subjects. Of these twelve, six received the radioactive dose (subjects 1, 4, 5, 6, 7, and 8 with subject 8 later dropping out of the study.) Eligible subjects were selected based on inclusion/exclusion criteria, medical history, physical examination and additional procedures outlined in the study protocol. Each subject received a 100 mg loading dose on the morning of Day 1, followed by a 50 mg maintenance dose every 12 hours for an additional 5 doses. On the morning of study Day 4, six subjects received a single 50 mg dose of [^14C]tigecycline (50 μCi). Each tigecycline dose was administered via a 30-minute intravenous infusion.
Serum samples were collected for metabolite profiling prior to tigecycline dosing and 1, 4, 8, 24 and 48 hours following the [^14C]-labeled dose. For metabolite profiling, urine samples were collected at 0-4, 4-8, 8-24 and 24-48 hours and fecal samples were collected up to 48 hours following the [^14C]-labeled dose. Serum and urine samples, and fecal homogenates were shipped on dry ice to the Biotransformation Division of Drug Safety and Metabolism, Wyeth Research, Collegeville, Pa. The details of the sample collection and sample storage are described in the mass balance portion of the study. The 24-48 hour urine and fecal samples for subject #6 were incomplete since the subject withdrew from the study. While samples from this subject were used for metabolite profiling, the samples were not included in the mass balance calculations.
Urine samples for metabolite profiling were extracted, as discussed below, using a method previously developed and used for rat and dog urine samples. Urine samples that had been collected at various intervals up to 48 hours following the dose of [^14C]tigecycline were thawed on ice prior to extraction. Aliquots (1 mL) of the individual urine samples were transferred to clean tubes and 0.2 M EDTA, for a final concentration of 40 mM EDTA, was added. […] Samples were mixed, centrifuged and the supernatants analyzed for metabolites by HPLC radiochromatography with selected samples also analyzed by LC/MS.
HPLC analyses were performed using a Waters 2695 Alliance Separation Module (Waters Corp., Milford, Mass.), a Waters Model 2487 dual wavelength UV absorbance detector, set to monitor 350 nm, and was in-line with a Gilson 215 liquid handler (Gilson, Middleton, Wis.) equipped to collect fractions at 20 second intervals. Fractions were collected into 96-well deep well Luma plates and analyzed using TopCount NXT. The autosampler temperature was set to 4° C. […]

[2] = Tigecycline metabolites identified in CD-1 mouse serum and urine and rabbit serum samples (LC/MS); format: in vivo
Description: The column temperature was 25° C. The flow rate was 0.2 mL/min. […] Gradient 1 was used for metabolite identification (qualitative analysis).
LC/MS analysis was conducted on extracts of serum and from CD-1 mice and rabbits, and on urine from CD-1 mice. The mass spectral data for tigecycline and its metabolites are discussed below.

[3] = LC/MS detection of tigecycline metabolites in CD-1 mouse serum and urine after intravenous tigecycline
Description: Fifteen male CD-1 mice, with an average weight of 31.3 g at the time of dosing, were used. Animals were given food and water ad libitum. Mice in the 0.5 and 2 hour blood collection groups were housed in standard cages, while those in the 4 hour blood collection group were housed in metabolism cages for the collection of urine. Mice were dosed by the Bioresources Department at Wyeth Research, Collegeville, Pa.
For mice and rabbits, the intravenous dosing solutions was prepared by dissolving 50 mg of tigecycline in 5.0 mL of 0.9% sterile saline solution to make a working stock solution. The working stock solution was diluted with 0.9% sterile saline solution to 0.5 mg/mL for mice and 4 mg/mL for rabbits. The mouse dose (5 mg/kg, 10 mL/kg) was administered as a bolus injection via the tail vein. The rabbit dose (4 mg/kg, 1 mL/kg) was administered as a bolus injection via the marginal vein of the ear.
For mice (n=5/time point), blood (approximately 0.7 mL) was collected by cardiac puncture at 0.5, 2 and 4 hours following administration of tigecycline. For rabbits, blood (approximately 7 mL) was collected via the ear vein at 0.5, 2 and 6 hours following the tigecycline dose. Serum was separated following clot formation at room temperature and centrifugation for 15 minutes at 4° C. and 3000 rpm. The serum was transferred to a fresh tube and was stored at approximately −70° C. until analysis as described below under “Serum Sample Preparation for LC/MS Analysis. In addition, urine was collected from mice in the 4 hour blood collection group and was stored at approximately −70° C. until analysis, as described below under “Urine Sample Preparation for LC/MS Analysis.”
Mouse urine was thawed and an aliquot (1 mL) transferred to a fresh tube. The sample was centrifuged at 14,000 rpm and room temperature for 10 minutes using a Model 5415C Eppendorf centrifuge (Brinkmann Instruments, Westbury, N.Y.) to remove any particulates. The sample was then transferred to a fresh tube and was analyzed by LC/MS, as described below under “Liquid Chromatography/Mass Spectrometry Analysis.”.
Mouse and rabbit serum samples were pooled at each collection time and analyzed for tigecycline, its epimer, tigecycline glucuronide (M7 and its epimer M6), 9-aminominocycline (M3) and N-acetyl-9-aminominocycline (M9 and its epimer M8). Aliquots of serum (500 μL) were transferred to new tubes and deuterated tigecycline (30 ng/mL final concentration) was added as an internal standard (quantitative analysis only). EDTA (40 μL of 0.5 M EDTA) was added to each sample and the samples vortex mixed. Acetonitrile (500 μL) was added to each sample, samples were vortex mixed and denatured protein separated by centrifugation at 14,000 rpm and room temperature for 10 minutes using a Model 5415C Eppendorf centrifuge (Brinkmann Instruments). The supernatant was transferred to a fresh tube and the solvent evaporated under a stream of nitrogen using a Turbovap Model LV evaporator (Caliper Life Sciences, Hopkinton, Mass.).
The HPLC system used for mass spectrometric analysis was a Waters Alliance Model 2695 HPLC system (Waters Corp., Milford, Mass.). It was equipped with a built-in autosampler and a Model 996 diode array UV detector. The UV detector was set to monitor 210-400 nm. Separations for metabolite characterization were accomplished on a Phenomenex Luna C18(2) column (150×2.1 mm, 5 μm) (Phenomenex, Torrance, Calif.) equipped with a Keystone Uniguard C18 guard column (10×2.1 mm) (Thermo Electron Corp., Bellefonte, Pa.). The column temperature was 25° C. The flow rate was 0.2 mL/min. Mobile phase A was 10 mM ammonium acetate in water and mobile phase B was acetonitrile.

SMILES	percent of the radioactivity in urine [1]	percent of the urinary radioactivity [1]	Species and matrix in which identified ([2]; in vivo, iv)	observed in mouse urine by LC/MS ([3]; mouse, in vivo, iv, 5 mg/kg)	Species and matrix in which identified ([2]; single IV tigecycline dose, LC/MS)	observed in mouse serum by LC/MS ([3]; male CD-1 mice, 5 mg/kg IV tigecycline, 0.5, 2, 4 hours, 5 mg/kg)	observed in mouse urine by LC/MS ([3]; male CD-1 mice, 5 mg/kg IV tigecycline, urine 0-4 hours)
CC(C)(C)NCC(=O)O [Metabolite M3a, t-butylaminoacetic acid]	15-37%						
CN(C)c1cc(NC(=O)CNC(C)(C)C)c(O)c2c1C[C@H]1C[C@H]3C(N(C)C)C(O[C@@H]4O[C@H](C(=O)O)[C@@H](O)[C@H](O)[C@H]4O)=C(C(N)=O)C(=O)[C@@]3(O)C(O)=C1C2=O (stereo in doubt) [Metabolite M7, tigecycline glucuronide]		approximately 20%	R-S, M-S, M-U	detected			
CN(C)c1cc(NC(=O)CNC(C)(C)C)c(O)c2c1C[C@H]1C[C@H]3[C@H](N(C)C)C(O)=C(C(N)=O)C(=O)[C@@]3(O)C(O)=C1C2=O [Tigecycline]					R-S, M-S, M-U	observed; also recorded: detected	detected
CN(C)c1cc(NC(=O)CNC(C)(C)C)c(O)c2c1C[C@H]1C[C@H]3[C@@H](N(C)C)C(O[C@@H]4O[C@H](C(=O)O)[C@@H](O)[C@H](O)[C@H]4O)=C(C(N)=O)C(=O)[C@@]3(O)C(O)=C1C2=O [Metabolite M6, epimer of tigecycline glucuronide]	less than 1%		R-S, M-S, M-U	detected			
